Values joined by “and” are separate entries in the source; they are usually repeats but may differ in a detail not shown here. Equal entries are not always repeated. Structures can show the parent of a compound that is named as a salt.
Experiments:
D(1A) dopamine receptor = D(1A) dopamine receptor (Bos taurus, UniProt Q95136)
D(2) dopamine receptor = D(2) dopamine receptor (Bos taurus, UniProt P20288)
D(2) dopamine receptor, sequence (P20288 whole entry): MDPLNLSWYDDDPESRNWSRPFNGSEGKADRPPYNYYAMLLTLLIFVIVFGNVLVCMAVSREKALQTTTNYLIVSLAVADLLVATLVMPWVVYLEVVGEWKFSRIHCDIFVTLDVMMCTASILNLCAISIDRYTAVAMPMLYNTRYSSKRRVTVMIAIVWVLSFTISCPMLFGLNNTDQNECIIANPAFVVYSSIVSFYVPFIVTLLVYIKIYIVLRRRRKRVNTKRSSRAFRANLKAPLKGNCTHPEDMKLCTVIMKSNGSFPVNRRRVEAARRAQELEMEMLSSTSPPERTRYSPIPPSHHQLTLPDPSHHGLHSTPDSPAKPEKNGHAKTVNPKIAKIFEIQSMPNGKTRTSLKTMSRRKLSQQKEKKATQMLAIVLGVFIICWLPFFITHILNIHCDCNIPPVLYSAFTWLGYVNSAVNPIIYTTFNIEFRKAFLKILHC

D(1A) dopamine receptor, sequence (Q95136 whole entry): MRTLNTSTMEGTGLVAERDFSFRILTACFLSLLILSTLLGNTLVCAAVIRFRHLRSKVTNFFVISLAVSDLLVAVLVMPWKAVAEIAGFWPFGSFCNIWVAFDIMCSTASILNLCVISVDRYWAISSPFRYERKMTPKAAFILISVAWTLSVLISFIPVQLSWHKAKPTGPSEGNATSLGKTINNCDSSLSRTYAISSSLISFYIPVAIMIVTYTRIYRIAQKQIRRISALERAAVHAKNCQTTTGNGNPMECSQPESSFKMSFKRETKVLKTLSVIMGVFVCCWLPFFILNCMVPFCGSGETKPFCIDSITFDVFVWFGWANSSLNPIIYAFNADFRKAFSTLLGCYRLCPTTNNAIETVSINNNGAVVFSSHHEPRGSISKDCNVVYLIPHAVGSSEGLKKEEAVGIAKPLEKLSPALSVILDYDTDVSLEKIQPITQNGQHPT

Row | SMILES | Ki (D(1A) dopamine receptor) | Ki (D(2) dopamine receptor)
1 | O=C1NCN(c2ccccc2)C12CCN(CCCC(c1ccc(F)cc1)c1ccc(F)cc1)CC2 | 1400 nM | 0.6 nM
2 | CN(C)CCCN1c2ccccc2CCc2ccccc21 | > 10000 nM | 180 nM
3 | CC(COc1ccccc1)N(CCCl)Cc1ccccc1 (stereo not given) | > 10000 nM | 140 nM
4 | CC[C@@H](CO)NC(=O)[C@@H]1C=C2c3cccc4c3c(cn4C)C[C@H]2N(C)C1 | 290 nM | 160 nM
5 | CN(C)CC/C=C1\c2ccccc2Sc2ccc(Cl)cc21 | 250 nM | 4.4 nM
6 | NCCc1ccc(O)c(O)c1 | 17.5 nM and 16.8 nM and 11.7 nM | 
7 | CN(C)CCCN1c2ccccc2Sc2ccccc21 | 7100 nM | 72 nM
8 | CN1CCN(CCCN2c3ccccc3Sc3ccc(C(F)(F)F)cc32)CC1 | 740 nM | 2.1 nM
9 | NC1CCc2cc(O)c(O)cc2C1 (stereo not given) | 11 nM | 120 nM
10 | CN1C2CCC1CC(OC(c1ccccc1)c1ccccc1)C2 (stereo not given) | > 10000 nM | 230 nM
11 | O=c1[nH]c2ccccc2n1C1CCN(CCCC(c2ccc(F)cc2)c2ccc(F)cc2)CC1 [1-(1-(4,4-bis(4-fluorophenyl)butyl)piperidin-4-yl)-1H-benzo[d]imidazol-2(3H)-one] | 5300 nM and 7600 nM and 6800 nM | 0.81 nM and 0.6 nM
12 | O=C(CCCN1CC=C(n2c(=O)[nH]c3ccccc32)CC1)c1ccc(F)cc1 [1-(1-(4-(4-fluorophenyl)-4-oxobutyl)-1,2,3,6-tetrahydropyridin-4-yl)-1H-benzo[d]imidazol-2(3H)-one] | 880 nM | 1 nM
13 | O=C(CCCN1CCN(c2ccccn2)CC1)c1ccc(F)cc1 [1-(4-Fluoro-phenyl)-4-(4-pyridin-2-yl-piperazin-1-yl)-butan-1-one(Azaperone)] | 1700 nM | 10 nM
14 | OCCN1CCN(CCCN2c3ccccc3Sc3ccc(C(F)(F)F)cc32)CC1 [2-[4-[3-[2-(trifluoromethyl)phenothiazin-10-yl]propyl]piperazin-1-yl]ethanol;hydrochloride] |  | 0.88 nM and 0.6 nM and 0.3 nM and 0.8 nM
15 | OCCN1CCN(CC/C=C2/c3ccccc3Sc3ccc(Cl)cc32)CC1 [2-[4-[(3Z)-3-(2-chloro-9-thioxanthenylidene)propyl]-1-piperazinyl]ethanol;hydrochloride] | 480 nM | 3.1 nM
16 | O=C(CCCN1CCC(O)(c2ccc(Cl)cc2)CC1)c1ccc(F)cc1 [4-[4-(4-Chloro-phenyl)-4-hydroxy-piperidin-1-yl]-1-(4-fluoro-phenyl)-butan-1-one;propionate(HCl)] | 920 nM and 1060 nM and 1100 nM | 
17 | CN1CCC(=C2c3ccccc3C=Cc3ccccc32)CC1 [5-(1-methylpiperidylidene-4)-5H-dibenzo(a,d)cyclopheptene] | 1200 nM | 65 nM
18 | CSc1ccc2c(c1)N(CC[C@@H]1CCCCN1C)c1ccccc1S2 [10-[2-(1-Methyl-piperidin-2-yl)-ethyl]-2-methylsulfanyl-10H-phenothiazine (thioridazine)] | 1800 nM and 1780 nM and 1810 nM | 
19 | CN1C[C@H](C(=O)N[C@]2(C)O[C@@]3(O)[C@@H]4CCCN4C(=O)[C@H](Cc4ccccc4)N3C2=O)C=C2c3cccc4[nH]cc(c34)C[C@H]21 [12'-hydroxy-2'-methyl-5'alpha-(phenylmethyl)ergotaman-3',6',18-trione] | 30 nM | 1.8 nM
20 | COc1ccc2c(c1O)-c1c3c(cc4c1[C@H](C2)N(C)CC4)OCO3 [(S)-11-methoxy-7-methyl-6,7,7a,8-tetrahydro-5H-benzo[g][1,3]dioxolo[4',5':4,5]benzo[1,2,3-de]quinolin-12-ol] | 800 nM | 930 nM
21 | CC(C)C[C@H]1C(=O)N2CCCC2[C@]2(O)O[C@](NC(=O)[C@@H]3C=C4c5cccc6[nH]cc(c56)CC4N(C)C3)(C(C)C)C(=O)N12 (stereo partly drawn) [ALPHA-ERGOCRYPTINE] | 69 nM | 1.3 nM
22 | O=C(CCCN1CCC(O)(c2ccc(Br)cc2)CC1)c1ccc(F)cc1 [BROMPERIDOL] | 600 nM | 1.4 nM
23 | CC(C)C[C@H]1C(=O)N2CCC[C@H]2[C@]2(O)O[C@](NC(=O)[C@@H]3C=C4c5cccc6[nH]c(Br)c(c56)C[C@H]4N(C)C3)(C(C)C)C(=O)N12 [Bromocriptine+ (GTP+)] |  | 2.5 nM
24 | CC(C)NC(=O)C1C=C2c3cccc4[nH]cc(c34)CC2N(C)C1 (stereo not given) [CAS_60-79-7] | 61 nM | 

Row | SMILES | Ki (D(1A) dopamine receptor) | Ki (D(2) dopamine receptor)
25 | CNCCc1ccc(O)c(O)c1 [CAS_62-32-8] | 23 nM | 530 nM
26 | O=C(CCC(F)N1CCC(O)(c2cccc(C(F)(F)F)c2)CC1)c1ccccc1 (stereo not given) [CAS_749-13-3] | 740 nM | 0.95 nM
27 | NC(=O)C1(N2CCCCC2)CCN(CCCC(=O)c2ccc(F)cc2)CC1 [CAS_1893-33-0] | 4900 nM | 31 nM
28 | O=C(CCCN1CCC(n2c(O)nc3ccccc32)CC1)c1ccc(F)cc1 [CAS_2062-84-2] | 4100 nM | 0.33 nM
29 | CCC(=O)C(CC(C)N(C)C)(c1ccccc1)c1ccccc1 (stereo not given) [CAS_5967-73-7] | > 10000 nM | 2700 nM
30 | O=C(CCCN1CCC(O)(c2ccc(Cl)c(C(F)(F)F)c2)CC1)c1ccc(F)cc1 [CAS_10457-91-7] | 360 nM | 0.5 nM
31 | OCCC1CCN(CCC=C2c3ccc(F)cc3Sc3ccc(C(F)(F)F)cc32)CC1 [CAS_60197-32-2] | 67 nM | 0.9 nM
32 | CNCC(O)c1ccc(O)c(O)c1 (stereo not given) [EPINEPHRINE] | 280 nM and 1200 nM | 2600 nM and > 10000 nM
33 | CC(C)[C@H]1C(=O)N2CCC[C@H]2[C@]2(O)O[C@](NC(=O)[C@@H]3C=C4c5cccc6[nH]cc(c56)C[C@H]4N(C)C3)(C(C)C)C(=O)N12 [ERGOCORNINE] | 36 nM | 0.7 nM
34 | COc1ccccc1N1CCN(CCCC(=O)c2ccc(F)cc2)CC1 [Fluanisone] | 800 nM | 3.8 nM
35 | CCN(CC)C(=O)[C@@H]1C=C2c3cccc4[nH]c(Br)c(c34)C[C@H]2N(C)C1 [LSD,2-Bromo] | 54 nM | 4 nM
36 | CN1CCN2c3ccccc3Cc3ccccc3[C@H]2C1 [MIANSERIN (+)] | 2500 nM | 620 nM
37 | CCc1c(C)[nH]c2c1C(=O)C(CN1CCOCC1)CC2 (stereo not given) [Moban] | > 10000 nM | 68 nM and 65 nM and 85 nM and 90 nM
38 | CC(CN1c2ccccc2Sc2ccccc21)N(C)C (stereo not drawn) [N,N,alpha-trimethyl-10H-phenothiazine-10-ethanamine] | > 10000 nM | 240 nM
39 | Cc1ccc(C2(O)CCN(CCCC(=O)c3ccc(F)cc3)CC2)cc1 [NSC_4249] | 1200 nM | 1.9 nM
40 | OCCN1CCN(CCC=C2c3ccccc3Sc3ccc(Cl)cc32)CC1 [NSC_12454] | > 10000 nM | 88 nM
41 | OCCN1CCN(CCCC2c3ccc(F)cc3Sc3ccc(C(F)(F)F)cc32)CC1 (stereo not given) [NSC_68751] | 1900 nM | 2.6 nM
42 | NCC(O)c1ccc(O)c(O)c1 (stereo not drawn) [Noradrenaline,(+)] | 820 nM and 200 nM | > 10000 nM and 5600 nM
43 | OC1(c2ccc(Cl)c(C(F)(F)F)c2)CCN(CCCC(c2ccc(F)cc2)c2ccc(F)cc2)CC1 [Penfluridol] | 1600 nM | 5.6 nM
44 | CC(C)[C@@]1(NC(=O)[C@@H]2C=C3c4cccc5[nH]cc(c45)C[C@H]3N(C)C2)O[C@@]2(O)[C@@H]3CCCN3C(=O)[C@H](Cc3ccccc3)N2C1=O [SMR000058447] | 52 nM | 1.4 nM
45 | Cc1ccc(N(CC2=NCCN2)c2cccc(O)c2)cc1 [SMR000059054] | > 10000 nM | 2000 nM
46 | CN(C)CCCN1c2ccccc2Sc2ccc(C(F)(F)F)cc21 [TRIFLUPROMAZINE] | 530 nM | 2.1 nM
47 | CC(C)=CCN1CC[C@@]2(C)c3cc(O)ccc3C[C@@H]1[C@@H]2C [Talwin] | > 10000 nM | 3500 nM
48 | CSc1ccc2c(c1)C(N1CCN(C)CC1)Cc1ccccc1S2 (stereo not given) [methanesulfonic acid;1-methyl-4-(3-methylsulfanyl-5,6-dihydrobenzo[b][1]benzothiepin-5-yl)piperazine] | 210 nM | 1.4 nM
